According to patent publication US11952384B2, “Anti-tumor compound and preparation method and use thereof” (DUALITY BIOLOGICS (SUZHOU) CO., LTD., priority 2020, dated 2024):
pIC50: −log10 of the molar value. Like-named read-outs stand apart in the source and are kept apart here.

What was measured:
MDA-MB-231 cells = experiment: Inhibition of in vitro proliferation of tumor cells by compounds (CTG, 6 days); format: cell-based; details: small molecule fragments, 6 days of culture, CTG, read-out: MDA-MB-231 IC50
Method: To test the inhibitory activity of the pharmaceutical compounds on the in vitro proliferation of NCI-N87, JIMT-1 and MBA-MB-231 tumor cells. The cells were treated with compounds at different concentrations in vitro, and after 6 days of culture, the proliferation of cells was detected using CTG (CellTiter-Glo® Luminescent Cell Viability Assay, Promega, Cat. No. G7558) reagents, and the in vitro activity of the compounds was evaluated according to the IC50 value. • 1. Culturing of cells: NCI-N87/JIMT-1/MBA-MB-231 cells were cultured in RPMI-1640 medium containing 10% FBS. • 2. Preparation of cells: NCI-N87/JIMT-1/MBA-MB-231 cells in logarithmic phase were taken, washed with PBS once, and digested with 2-3 mL of trypsin for 2-3 min. After the cells were digested completely, 10-15 mL of cell culture was added to elute the digested cells. The eluate was centrifuged at 1000 rpm for 5 min, and the supernatant was discarded. The resulting cells were resuspended in 10-20 mL of cell culture to obtain a single cell suspension. • 3. Cell plating: the NCI-N87/JIMT-1/MBA-MB-231 single cell suspension was mixed well and adjusted to a viable cell density of 6×10^4 cells/mL with cell culture. The cell suspension with the adjusted density was mixed well and added to a 96-well cell culture plate at 50 μL/well. The culture plate was incubated in an incubator for 18 h (37° C., 5% CO2). • 4. Preparation of compounds: the compounds were dissolved in DMSO to obtain stock solutions at an initial concentration of 10 mM. There were 8 concentrations in total for the small molecule compounds: 300 nM, 100 nM, 30 nM, 10 nM, 3 nM, 1 nM, 0.3 nM, and 0.1 nM. • 5. Sample adding: the prepared samples to be detected at different concentrations were added to the culture plate, and two duplicate wells were set for each sample. The culture plate was incubated in an incubator for 6 days (37° C., 5% CO2). • 6. Color developing: the 96-well cell culture plate was taken out, added with the CTG reagent at 50 μL/well, and incubated at room temperature for 10 min. • 7. Plate reading: the 96-well cell culture plate was taken out, placed in a microplate reader, and measured for the chemiluminescence using the microplate reader. Data analysis: data were processed and analyzed using Microsoft Excel and Graphpad Prism 5.

P-gp = biological target: T1, P-gp (Homo sapiens, UniProt P08183); experiment: Study on transporter substrates in Caco-2 cell model; format: in vitro ADME; details: Caco-2
T1 construct: endogenous in cells; host or cells: Caco-2
T1 sequence (P08183 whole entry): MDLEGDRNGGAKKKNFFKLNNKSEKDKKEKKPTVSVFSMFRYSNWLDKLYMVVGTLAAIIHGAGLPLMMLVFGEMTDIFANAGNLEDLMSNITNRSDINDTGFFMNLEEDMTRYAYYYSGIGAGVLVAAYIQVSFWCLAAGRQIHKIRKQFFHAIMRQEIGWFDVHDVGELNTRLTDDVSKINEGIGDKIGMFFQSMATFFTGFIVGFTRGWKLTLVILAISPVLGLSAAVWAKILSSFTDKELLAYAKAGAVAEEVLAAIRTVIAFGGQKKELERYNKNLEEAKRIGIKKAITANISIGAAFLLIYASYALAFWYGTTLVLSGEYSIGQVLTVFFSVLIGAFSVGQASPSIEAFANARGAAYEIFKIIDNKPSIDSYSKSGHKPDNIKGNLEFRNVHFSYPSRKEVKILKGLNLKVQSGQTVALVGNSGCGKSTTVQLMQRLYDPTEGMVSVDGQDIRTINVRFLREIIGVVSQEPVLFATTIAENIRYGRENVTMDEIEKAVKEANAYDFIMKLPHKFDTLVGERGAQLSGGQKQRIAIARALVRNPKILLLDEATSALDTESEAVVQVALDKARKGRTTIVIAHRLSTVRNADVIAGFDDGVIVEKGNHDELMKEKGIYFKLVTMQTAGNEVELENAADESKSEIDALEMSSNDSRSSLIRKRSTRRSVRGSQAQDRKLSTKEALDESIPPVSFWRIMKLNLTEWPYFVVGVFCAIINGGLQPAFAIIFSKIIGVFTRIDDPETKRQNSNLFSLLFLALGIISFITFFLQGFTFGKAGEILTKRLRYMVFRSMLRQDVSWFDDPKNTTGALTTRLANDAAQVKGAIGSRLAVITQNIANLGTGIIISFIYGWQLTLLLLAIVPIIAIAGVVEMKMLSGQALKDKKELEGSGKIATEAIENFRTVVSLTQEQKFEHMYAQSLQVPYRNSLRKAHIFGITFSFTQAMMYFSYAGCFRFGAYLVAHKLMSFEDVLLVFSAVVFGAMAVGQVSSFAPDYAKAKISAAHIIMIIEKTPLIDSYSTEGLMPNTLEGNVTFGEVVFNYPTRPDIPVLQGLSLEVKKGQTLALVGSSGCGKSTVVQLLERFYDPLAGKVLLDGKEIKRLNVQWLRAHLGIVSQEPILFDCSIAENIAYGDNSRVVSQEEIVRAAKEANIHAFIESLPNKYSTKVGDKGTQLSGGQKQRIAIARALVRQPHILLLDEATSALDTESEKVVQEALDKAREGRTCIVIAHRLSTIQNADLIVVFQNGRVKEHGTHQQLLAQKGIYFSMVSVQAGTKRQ
Method: The resistance of each well was recorded. […] 2. […] The plate was vortexed for 10 min. The samples were centrifuged. […] HBSS was added to the basolateral compartment. […] 3. Data Analysis
Data were calculated using Microsoft Excel.

BCRP [1] = biological target: T2, BCRP (Homo sapiens, UniProt Q9UNQ0); details: Caco-2
T2 sequence (Q9UNQ0 1-655): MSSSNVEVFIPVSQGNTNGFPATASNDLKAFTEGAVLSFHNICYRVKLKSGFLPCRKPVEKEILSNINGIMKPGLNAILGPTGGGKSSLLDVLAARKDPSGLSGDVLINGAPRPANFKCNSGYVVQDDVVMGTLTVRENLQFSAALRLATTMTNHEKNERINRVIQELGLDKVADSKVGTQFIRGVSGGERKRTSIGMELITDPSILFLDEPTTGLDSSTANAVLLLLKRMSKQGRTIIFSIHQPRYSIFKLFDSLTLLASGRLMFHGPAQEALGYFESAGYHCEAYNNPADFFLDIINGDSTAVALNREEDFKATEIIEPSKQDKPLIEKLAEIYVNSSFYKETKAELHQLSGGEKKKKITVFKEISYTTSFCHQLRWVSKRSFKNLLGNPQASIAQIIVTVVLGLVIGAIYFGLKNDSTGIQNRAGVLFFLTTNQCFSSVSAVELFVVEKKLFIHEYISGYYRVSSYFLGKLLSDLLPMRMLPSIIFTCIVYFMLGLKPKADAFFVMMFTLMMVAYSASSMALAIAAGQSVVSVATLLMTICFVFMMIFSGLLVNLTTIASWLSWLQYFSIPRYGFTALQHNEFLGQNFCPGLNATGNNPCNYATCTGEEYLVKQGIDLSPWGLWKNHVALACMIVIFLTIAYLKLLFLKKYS

BCRP [2] = biological target: T2, BCRP; experiment: in vitro; details: for Papp A→B at 2 h: Caco-2, Papp (A-B) (10^−6, cm/s); for Papp B→A at 2 h: Caco-2, Papp (B-A) (10^−6, cm/s)
Colo205 cells = experiment: Inhibition of in vitro proliferation of tumor cells by compounds (CTG, 6 days); format: cell-based; details: Homo sapiens, COLO 205, 144 h, Table 4, Test Example 2.4, small molecule fragments, 6 days of culture
Method: To test the inhibitory activity of the pharmaceutical compounds on the in vitro proliferation of NCI-N87 and Colo205 tumor cells. The cells were treated with compounds at different concentrations in vitro, and after 6 days of culture, the proliferation of cells was detected using CTG (CellTiter-Glo® Luminescent Cell Viability Assay, Promega, Cat. No. G7558) reagents, and the in vitro activity of the compounds was evaluated according to the IC50 value. • 1. Culturing of cells: NCI-N87/Colo205 cells were cultured in RPMI-1640 medium containing 10% FBS. • 2. Preparation of cells: NCI-N87/Colo205 cells in logarithmic phase were taken, washed with PBS once, and digested with 2-3 mL of trypsin for 2-3 min. After the cells were digested completely, 10-15 mL of cell culture was added to elute the digested cells. The eluate was centrifuged at 1000 rpm for 5 min, and the supernatant was discarded. […] Sample adding: the prepared samples to be detected at different concentrations were added to the culture plate, and two duplicate wells were set for each sample. […] Plate reading: the 96-well cell culture plate was taken out, placed in a microplate reader, and measured for the chemiluminescence using the microplate reader. Data analysis: data were processed and analyzed using Microsoft Excel and Graphpad Prism 5.

[3] = Homo sapiens, MDA-MB-231, 144 h, Table 2 (untitled), Test Example 2.2

SMILES: CC[C@@]1(O)C(=O)OCc2c1cc1n(c2=O)Cc2c-1nc1cc(F)c(C)c3c1c2[C@@H](NC(=O)C1CCC(O)CC1)CC3 (single isomer, unassigned) [P-II-1]
- pIC50 (MDA-MB-231 cells; [3]): 7.89
- P-gp substrate (P-gp): neither transporter P-gp substrates nor transporter BCRP substrates
- Papp (A-B) (10^−6, cm/s) (BCRP [1]): 0.20 10^−6, cm/s
- Papp (B-A) (10^−6, cm/s) (BCRP [1]): 5.52 10^−6, cm/s

SMILES: CC[C@@]1(O)C(=O)OCc2c1cc1n(c2=O)Cc2c-1nc1cc(F)c(C)c3c1c2[C@@H](NC(=O)C1CCC(O)CC1)CC3 (single isomer, unassigned) [P-II-2]
- pIC50 (MDA-MB-231 cells; Table 2 (untitled), Test Example 2.2): 7.71
- P-gp substrate (P-gp): neither transporter P-gp substrates nor transporter BCRP substrates
- Papp (A-B) (10^−6, cm/s) (BCRP [1]): 0.07 10^−6, cm/s
- Papp (B-A) (10^−6, cm/s) (BCRP [1]): 1.70 10^−6, cm/s

SMILES: CC[C@@]1(O)C(=O)OCc2c1cc1n(c2=O)Cc2c-1nc1cc(F)c(C)c3c1c2[C@@H](NC(=O)[C@H]1C[C@@H](O)C1)CC3 [P-II-3, (1s,3R)-N-((1S,9S)-9-ethyl-5-fluoro-9-hydroxy-4-methyl-10,13-dioxo-2,3,9,10,13,15-hexahydro-1H,12H-benzo[de]pyrano[3′,4′:6,7]indolizino[1,2-b]quinolin-1-yl)-3-hydroxycyclobutane-1-carboxamide]
- pIC50 (MDA-MB-231 cells; [3]): 8.03
- P-gp substrate (P-gp): neither transporter P-gp substrates nor transporter BCRP substrates
- Papp (A-B) (10^−6, cm/s) (BCRP [1]): 0.20 10^−6, cm/s
- Papp (B-A) (10^−6, cm/s) (BCRP [1]): 5.52 10^−6, cm/s
- Papp A→B at 2 h (BCRP [2]): 0.17 ×10⁻⁶ cm/s
- Papp B→A at 2 h (BCRP [2]): 4.83 ×10⁻⁶ cm/s

SMILES: CC[C@@]1(O)C(=O)OCc2c1cc1n(c2=O)Cc2c-1nc1cc(F)c(C)c3c1c2[C@@H](NC(=O)[C@H]1C[C@H](O)C1)CC3 [P-II-4, (1r,3S)-N-((1S,9S)-9-ethyl-5-fluoro-9-hydroxy-4-methyl-10,13-dioxo-2,3,9,10,13,15-hexahydro-1H,12H-benzo[de]pyrano[3′,4′:6,7]indolizino[1,2-b]quinolin-1-yl)-3-hydroxycyclobutane-1-carboxamide]
- pIC50 (MDA-MB-231 cells; [3]): 8.12
- P-gp substrate (P-gp): neither transporter P-gp substrates nor transporter BCRP substrates
- Papp (A-B) (10^−6, cm/s) (BCRP [1]): 0.06 10^−6, cm/s
- Papp (B-A) (10^−6, cm/s) (BCRP [1]): 1.65 10^−6, cm/s
- Papp A→B at 2 h (BCRP [2]): 0.05 ×10⁻⁶ cm/s
- Papp B→A at 2 h (BCRP [2]): 1.72 ×10⁻⁶ cm/s

SMILES: CC[C@@]1(O)C(=O)OCc2c1cc1n(c2=O)Cc2c-1nc1cc(F)c(C)c3c1c2[C@@H](NC(=O)C[C@@H](C)O)CC3 [P-III-20, (R)—N-((1S,9S)-9-ethyl-5-fluoro-9-hydroxy-4-methyl-10,13-dioxo-2,3,9,10,13,15-hexahydro-1H,12H-benzo[de]pyrano[3′,4′: 6,7]indolizino[1,2-b]quinolin-1-yl)-3-hydroxybutanamide]
- pIC50 (MDA-MB-231 cells; Homo sapiens, MDA-MB-231, 144 h, Table 3, Test Example 2.3): 8.18
- pIC50 (Colo205 cells): 7.70
